These results are taken from ChEMBL document CHEMBL1130666, “Benzimidazole derivatives as arginine mimetics in 1,4-benzodiazepine nonpeptide vitronectin receptor (alpha v beta 3) antagonists” (Bioorg Med Chem Lett, 1998).

Assay [1] has as its target T1, Integrin alpha-V/beta-3 (Homo sapiens, UniProt P05106+P06756). The assay can be described thus: Effect against adhesion of HEK 293 cells transfected with human alpha-v beta-3 to vitronectin coated plates. It counts as functional, cell-based, HEK293.
Assay [2] deals with T1, Integrin alpha-V/beta-3. The assay can be described thus: Binding affinity evaluated against vitronectin receptor (alphaV-beta3) receptor. Format: protein-complex assay.
The target of assay [3] is Integrin alpha-IIb/beta-3 (Homo sapiens, UniProt P05106+P08514). Description: Affinity for alphaIIb-beta3 receptor. It counts as protein-complex assay.

The structures appear in SMILES notation.

T1 sequence (P05106 27-788 limits assumed): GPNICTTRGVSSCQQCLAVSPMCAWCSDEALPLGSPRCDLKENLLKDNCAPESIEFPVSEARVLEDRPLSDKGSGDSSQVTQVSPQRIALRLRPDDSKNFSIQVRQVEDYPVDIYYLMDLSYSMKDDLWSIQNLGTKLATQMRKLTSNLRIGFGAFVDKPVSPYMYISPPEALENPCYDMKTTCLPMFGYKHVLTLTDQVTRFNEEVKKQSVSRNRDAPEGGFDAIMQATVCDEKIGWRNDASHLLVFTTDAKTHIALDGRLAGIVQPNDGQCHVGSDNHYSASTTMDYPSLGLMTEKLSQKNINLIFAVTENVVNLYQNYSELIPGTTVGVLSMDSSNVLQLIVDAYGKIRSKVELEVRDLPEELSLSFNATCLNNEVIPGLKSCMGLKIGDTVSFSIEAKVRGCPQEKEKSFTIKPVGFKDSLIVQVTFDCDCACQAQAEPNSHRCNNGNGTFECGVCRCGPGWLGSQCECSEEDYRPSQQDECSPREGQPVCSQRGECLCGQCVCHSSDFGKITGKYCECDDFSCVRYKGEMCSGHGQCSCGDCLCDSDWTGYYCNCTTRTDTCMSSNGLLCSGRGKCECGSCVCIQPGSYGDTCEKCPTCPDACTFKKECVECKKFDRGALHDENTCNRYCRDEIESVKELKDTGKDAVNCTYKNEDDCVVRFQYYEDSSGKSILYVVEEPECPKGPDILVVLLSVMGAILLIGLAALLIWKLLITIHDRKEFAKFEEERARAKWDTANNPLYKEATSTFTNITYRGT
T1 sequence (P06756 31-889 limits assumed): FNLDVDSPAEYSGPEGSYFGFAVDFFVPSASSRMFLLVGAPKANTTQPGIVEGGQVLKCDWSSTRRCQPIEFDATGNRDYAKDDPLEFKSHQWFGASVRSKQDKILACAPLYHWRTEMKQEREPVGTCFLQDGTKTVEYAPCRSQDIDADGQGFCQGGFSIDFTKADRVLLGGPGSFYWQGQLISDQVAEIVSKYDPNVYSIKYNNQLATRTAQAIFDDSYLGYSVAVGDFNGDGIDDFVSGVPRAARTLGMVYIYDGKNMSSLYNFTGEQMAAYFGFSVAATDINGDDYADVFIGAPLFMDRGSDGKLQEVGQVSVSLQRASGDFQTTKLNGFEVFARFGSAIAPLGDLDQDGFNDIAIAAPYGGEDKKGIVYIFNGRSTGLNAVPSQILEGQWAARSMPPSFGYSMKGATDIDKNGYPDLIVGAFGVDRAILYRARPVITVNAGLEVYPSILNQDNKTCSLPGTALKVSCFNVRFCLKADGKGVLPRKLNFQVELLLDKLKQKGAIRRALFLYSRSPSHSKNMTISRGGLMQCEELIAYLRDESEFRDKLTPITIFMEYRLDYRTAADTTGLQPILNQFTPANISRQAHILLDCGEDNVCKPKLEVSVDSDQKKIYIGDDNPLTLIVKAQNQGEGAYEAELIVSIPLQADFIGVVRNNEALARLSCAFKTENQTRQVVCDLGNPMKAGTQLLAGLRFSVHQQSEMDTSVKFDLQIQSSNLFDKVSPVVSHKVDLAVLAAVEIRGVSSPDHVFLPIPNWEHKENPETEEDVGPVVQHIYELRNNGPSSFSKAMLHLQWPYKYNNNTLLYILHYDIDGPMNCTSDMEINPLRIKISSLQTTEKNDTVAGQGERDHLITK
T1 sequence (P06756 891-1048 limits assumed): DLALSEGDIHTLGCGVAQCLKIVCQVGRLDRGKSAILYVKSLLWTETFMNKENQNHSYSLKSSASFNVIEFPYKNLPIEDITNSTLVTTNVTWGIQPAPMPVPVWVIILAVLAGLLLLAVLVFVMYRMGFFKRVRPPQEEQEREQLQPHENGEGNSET
Chain of Integrin alpha-IIb/beta-3 (P05106 27-788 limits assumed): as the sequence (P05106 27-788 limits assumed) above
Chain of Integrin alpha-IIb/beta-3 (P08514 32-887 limits assumed): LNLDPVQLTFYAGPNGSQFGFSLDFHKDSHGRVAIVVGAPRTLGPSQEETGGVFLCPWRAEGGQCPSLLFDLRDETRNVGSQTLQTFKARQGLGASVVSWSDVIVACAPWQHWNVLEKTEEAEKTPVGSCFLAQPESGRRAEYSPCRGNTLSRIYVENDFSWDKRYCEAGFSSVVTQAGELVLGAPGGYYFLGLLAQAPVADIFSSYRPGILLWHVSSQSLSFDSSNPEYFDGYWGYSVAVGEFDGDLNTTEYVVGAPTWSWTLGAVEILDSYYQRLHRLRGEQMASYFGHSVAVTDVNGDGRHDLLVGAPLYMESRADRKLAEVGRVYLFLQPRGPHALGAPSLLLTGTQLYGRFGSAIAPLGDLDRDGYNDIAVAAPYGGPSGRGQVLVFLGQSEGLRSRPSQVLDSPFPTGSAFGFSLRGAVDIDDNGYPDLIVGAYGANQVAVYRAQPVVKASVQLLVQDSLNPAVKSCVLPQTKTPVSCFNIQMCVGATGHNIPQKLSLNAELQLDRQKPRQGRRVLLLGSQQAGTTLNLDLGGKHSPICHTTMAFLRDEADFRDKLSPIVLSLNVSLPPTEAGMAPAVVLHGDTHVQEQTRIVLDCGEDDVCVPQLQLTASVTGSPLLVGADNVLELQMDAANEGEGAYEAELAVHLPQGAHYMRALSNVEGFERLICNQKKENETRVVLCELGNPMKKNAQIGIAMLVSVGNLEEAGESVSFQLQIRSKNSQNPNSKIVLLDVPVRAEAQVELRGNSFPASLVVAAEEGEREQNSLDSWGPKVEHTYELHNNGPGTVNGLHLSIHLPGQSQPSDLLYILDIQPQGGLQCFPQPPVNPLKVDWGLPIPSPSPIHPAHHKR
Chain of Integrin alpha-IIb/beta-3 (P08514 891-1039 limits assumed): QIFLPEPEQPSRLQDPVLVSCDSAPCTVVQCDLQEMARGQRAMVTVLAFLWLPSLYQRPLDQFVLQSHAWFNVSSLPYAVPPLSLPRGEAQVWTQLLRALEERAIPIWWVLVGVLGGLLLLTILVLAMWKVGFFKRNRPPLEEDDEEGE

As for `O=C(O)C[C@@H]1Nc2ccc(C(=O)NCc3nc4ccccc4[nH]3)cc2CNC1=O`, it took 5000 nM to reach half-maximal inhibition against Integrin alpha-V/beta-3 [1] (IC50). The affinity at Integrin alpha-V/beta-3 [2] corresponds to a Ki of 30 nM.
The like results for `CN1Cc2cc(C(=O)N(CC#N)Cc3nc4ccccc4[nH]3)ccc2N[C@@H](CC(=O)O)C1=O` were, in that order, 810 nM and 4 nM.
For the molecule `CN(Cc1nc2c(N)cccc2[nH]1)C(=O)c1ccc2c(c1)CN(C)C(=O)[C@H](CC(=O)O)N2`, the half-inhibitory concentration (IC50) against Integrin alpha-V/beta-3 [1] came out at 810 nM. The molecule also came in with a Ki at Integrin alpha-V/beta-3 [2] of 5.5 nM.
As to `CN(Cc1nc2c([nH]1)CCCC2)C(=O)c1ccc2c(c1)CN(C)C(=O)[C@H](CC(=O)O)N2`, the Ki came out at 2750 nM in assay [3] and 5 nM on Integrin alpha-V/beta-3 [2].
Regarding `Cc1cccc2[nH]c(CN(C)C(=O)c3ccc4c(c3)CN(C)C(=O)[C@H](CC(=O)O)N4)nc12`, the midpoint of inhibition against Integrin alpha-V/beta-3 [1], the IC50, lay at 480 nM. At Integrin alpha-V/beta-3 [2], this molecule had a Ki of 2 nM.
At Integrin alpha-V/beta-3 [1], `O=C(O)C[C@@H]1Nc2ccc(C(=O)NCc3nc4ccccc4[nH]3)cc2CN(Cc2ccccc2)C1=O` displayed an IC50 of 1500 nM. The same molecule displayed a Ki at Integrin alpha-V/beta-3 [2] of 15 nM.
Take `CN(Cc1nc2ccccc2[nH]1)C(=O)c1ccc2c(c1)CN(CCc1ccccc1)C(=O)[C@H](CC(=O)O)N2`: the midpoint of inhibition on Integrin alpha-V/beta-3 [1], the IC50, lay at 90 nM. For the same molecule, the Ki on Integrin alpha-V/beta-3 [2] was 4 nM.
In the case of `COc1ccc(OC)c2[nH]c(CN(C)C(=O)c3ccc4c(c3)CN(C)C(=O)[C@H](CC(=O)O)N4)nc12`, the Ki on Integrin alpha-V/beta-3 [2] came out at 1300 nM.
`CN(Cc1nc2ccc(C(F)(F)F)cc2[nH]1)C(=O)c1ccc2c(c1)CN(C)C(=O)[C@H](CC(=O)O)N2`: the IC50 against Integrin alpha-V/beta-3 [1] came out at 1000 nM. The same molecule displayed a Ki at Integrin alpha-V/beta-3 [2] of 8.5 nM.
`CN(Cc1nc2cc(F)c(F)cc2[nH]1)C(=O)c1ccc2c(c1)CN(C)C(=O)[C@H](CC(=O)O)N2` displayed an IC50 on Integrin alpha-V/beta-3 [1] of 540 nM. At Integrin alpha-V/beta-3 [2], this molecule yielded a Ki of 2.5 nM.
Molecule `CN1Cc2cc(C(=O)N(Cc3nc4ccccc4[nH]3)Cc3nc4ccccc4[nH]3)ccc2N[C@@H](CC(=O)O)C1=O` had an IC50 against Integrin alpha-V/beta-3 [1] of 480 nM. This molecule also came in with a Ki on Integrin alpha-V/beta-3 [2] of 2.5 nM.
Consider `CN(Cc1nc2cc3c(cc2[nH]1)OCO3)C(=O)c1ccc2c(c1)CN(C)C(=O)[C@H](CC(=O)O)N2`, for which the IC50 against Integrin alpha-V/beta-3 [1] worked out at 690 nM. Moreover, the Ki on Integrin alpha-V/beta-3 [2] turned out to be 9 nM.
As to `CN1Cc2cc(C(=O)N(Cc3nc4ccccc4[nH]3)C3CCCCC3)ccc2N[C@@H](CC(=O)O)C1=O`, the Ki at Integrin alpha-V/beta-3 [2] is 750 nM.
`CN(Cc1nc2ccccc2n1C)C(=O)c1ccc2c(c1)CN(C)C(=O)[C@H](CC(=O)O)N2`: the values for the Ki (in assay [3]; on Integrin alpha-V/beta-3 [2]) were 28000 nM and 70 nM, respectively.
`COc1cc2nc(CN(C)C(=O)c3ccc4c(c3)CN(C)C(=O)[C@H](CC(=O)O)N4)[nH]c2cc1OC` registered a Ki on Integrin alpha-V/beta-3 [2] of 180 nM. That is a sub-micromolar value.
For the molecule `O=C(O)C[C@@H]1Nc2ccc(C(=O)NCc3nc4ccccc4[nH]3)cc2CN(CCc2cccnc2)C1=O`, it took 350 nM to reach half-maximal inhibition at Integrin alpha-V/beta-3 [1] (IC50). The same molecule returned a Ki at Integrin alpha-V/beta-3 [2] of 10 nM.
The like results for `CN(Cc1nc2c([N+](=O)[O-])cccc2[nH]1)C(=O)c1ccc2c(c1)CN(C)C(=O)[C@H](CC(=O)O)N2` were, in that order, 1100 nM and 13 nM.
As for `CCCCN(Cc1nc2ccccc2[nH]1)C(=O)c1ccc2c(c1)CN(C)C(=O)[C@H](CC(=O)O)N2`, the IC50 on Integrin alpha-V/beta-3 [1] came out at 520 nM. The molecule further registered a Ki at Integrin alpha-V/beta-3 [2] of 3.5 nM.
`CN(Cc1nc2ccccc2[nH]1)C(=O)c1ccc2c(c1)CNC(=O)[C@H](CC(=O)O)N2` displayed an IC50 at Integrin alpha-V/beta-3 [1] of 500 nM. Moreover, the Ki at Integrin alpha-V/beta-3 [2] is 6.5 nM.
Regarding `CN1Cc2cc(C(=O)N(CCc3ccccc3)Cc3nc4ccccc4[nH]3)ccc2N[C@@H](CC(=O)O)C1=O`, inhibition against Integrin alpha-V/beta-3 [1] was half-maximal at 280 nM (IC50). In addition, the Ki at Integrin alpha-V/beta-3 [2] came out at 5 nM.
Turning to `CN1Cc2cc(C(=O)NCc3nc4ccccc4[nH]3)ccc2N[C@@H](CC(=O)O)C1=O`, at Integrin alpha-V/beta-3 [1], half-maximal inhibition (IC50) was put at 1650 nM. In other words, the single-digit micromolar range.
In turn, `COCCN1Cc2cc(C(=O)NCc3nc4ccccc4[nH]3)ccc2N[C@@H](CC(=O)O)C1=O` (racemic) gave a 50% inhibitory concentration (IC50) against Integrin alpha-V/beta-3 [1] of 3000 nM. At Integrin alpha-V/beta-3 [2], the affinity, expressed as Ki, was 28 nM.
As to `CN(Cc1nc2ccccc2[nH]1)C(=O)c1ccc2c(c1)CN(CCc1ccc3c(c1)OCO3)C(=O)[C@H](CC(=O)O)N2` (racemic), at Integrin alpha-V/beta-3 [1], the IC50 turned out to be 250 nM. Further, the Ki on Integrin alpha-V/beta-3 [2] was determined as 6 nM.
The molecule `O=C(O)C[C@@H]1Nc2ccc(C(=O)NCc3nc4ccccc4[nH]3)cc2CN(CCc2ccc3c(c2)OCO3)C1=O` (racemic) registered a concentration for half-maximal inhibition (IC50) at Integrin alpha-V/beta-3 [1] of 670 nM. The molecule also returned a Ki at Integrin alpha-V/beta-3 [2] of 6.5 nM.
At Integrin alpha-V/beta-3 [1], `CN(Cc1nc2ccccc2[nH]1)C(=O)c1ccc2c(c1)CN(CCC(C)(C)C)C(=O)[C@H](CC(=O)O)N2` (racemic) showed an IC50 of 180 nM. Also, the Ki on Integrin alpha-V/beta-3 [2] was found to be 1.6 nM.
As to `CC(C)N1Cc2cc(C(=O)NCc3nc4ccccc4[nH]3)ccc2N[C@@H](CC(=O)O)C1=O` (racemic), on Integrin alpha-V/beta-3 [1], half-maximal inhibition (IC50) required 5100 nM. Further, the Ki on Integrin alpha-V/beta-3 [2] worked out at 20 nM.
Turning to `CN(Cc1nc2ccc([N+](=O)[O-])cc2[nH]1)C(=O)c1ccc2c(c1)CN(C)C(=O)[C@H](CC(=O)O)N2` (racemic), the IC50 against Integrin alpha-V/beta-3 [1] turned out to be 3000 nM. The molecule also yielded a Ki at Integrin alpha-V/beta-3 [2] of 14 nM.
On to `CN1Cc2cc(C(=O)NCc3ncc[nH]3)ccc2N[C@@H](CC(=O)O)C1=O` (racemic), for which the Ki stood at 47000 nM in assay [3] and 2900 nM on Integrin alpha-V/beta-3 [2].
With `CN(Cc1nc2ccccc2o1)C(=O)c1ccc2c(c1)CN(C)C(=O)[C@H](CC(=O)O)N2` (racemic), the values for the inhibitory constant (Ki) (in assay [3]; on Integrin alpha-V/beta-3 [2]) were 30000 nM and 1100 nM, respectively.
`CN(Cc1nc2cc(C#N)ccc2[nH]1)C(=O)c1ccc2c(c1)CN(C)C(=O)[C@H](CC(=O)O)N2` (racemic): the IC50 at Integrin alpha-V/beta-3 [1] was 690 nM. In addition, the Ki at Integrin alpha-V/beta-3 [2] was determined as 15 nM.
The like results for `COCCN1Cc2cc(C(=O)N(C)Cc3nc4ccccc4[nH]3)ccc2N[C@@H](CC(=O)O)C1=O` (racemic) were, in that order, 340 nM and 3 nM.
In the case of `O=C(O)C[C@@H]1Nc2ccc(C(=O)NCc3nc4ccccc4[nH]3)cc2CN(CC(=O)O)C1=O` (racemic), at Integrin alpha-V/beta-3 [1], the concentration for half-maximal inhibition (IC50) came out at 4500 nM. The same molecule came in with a Ki at Integrin alpha-V/beta-3 [2] of 27 nM.
On Integrin alpha-V/beta-3 [1], `CN(Cc1nc2ccc(N)cc2[nH]1)C(=O)c1ccc2c(c1)CN(C)C(=O)[C@H](CC(=O)O)N2` (racemic) yielded a concentration for half-maximal inhibition (IC50) of 900 nM. In addition, on Integrin alpha-V/beta-3 [2], the affinity, expressed as Ki, was 19 nM.
On the same counts, the results for `O=C(O)C[C@@H]1Nc2ccc(C(=O)NCc3nc4ccccc4[nH]3)cc2CN(CCc2ccccc2)C1=O` (racemic) are 750 nM and 9 nM.
`CN(Cc1nc2ccccc2s1)C(=O)c1ccc2c(c1)CN(C)C(=O)[C@H](CC(=O)O)N2` (racemic): the Ki stood at 29000 nM in assay [3] and 480 nM at Integrin alpha-V/beta-3 [2].
On to `CN1Cc2cc(C(=O)NCc3cc4ccccc4[nH]3)ccc2N[C@@H](CC(=O)O)C1=O` (racemic), for which the figures for the Ki (in assay [3]; at Integrin alpha-V/beta-3 [2]) were greater than 50000 nM and 110 nM, respectively.
On Integrin alpha-V/beta-3 [1], `CN(Cc1nc2cc(Cl)ccc2[nH]1)C(=O)c1ccc2c(c1)CN(C)C(=O)[C@H](CC(=O)O)N2` (racemic) had an IC50 of 900 nM. At Integrin alpha-V/beta-3 [2], affinity was put at a Ki of 11 nM.
On Integrin alpha-V/beta-3 [1], `CN(Cc1nc2ccccc2[nH]1)C(=O)c1ccc2c(c1)CN(Cc1ccccc1)C(=O)[C@H](CC(=O)O)N2` (racemic) displayed an IC50 of 510 nM. At Integrin alpha-V/beta-3 [2], this molecule had a Ki of 1.9 nM.
Regarding `CC(C)(C)CCN1Cc2cc(C(=O)NCc3nc4ccccc4[nH]3)ccc2N[C@@H](CC(=O)O)C1=O` (racemic), the IC50 on Integrin alpha-V/beta-3 [1] is 1400 nM. At Integrin alpha-V/beta-3 [2], this molecule displayed a Ki of 15 nM.
As to `CN1Cc2cc(C(=O)NCc3nc4ccccc4[nH]3)ccc2N[C@@H](CC(=O)O)C1=O` (racemic), half-maximal inhibition on Integrin alpha-V/beta-3 [1] (IC50) was put at 3600 nM. Moreover, at Integrin alpha-V/beta-3 [2], the Ki was determined as 24 nM.

As usually defined, the IC50 is the concentration that gives 50% inhibition. As a reminder, the Ki is the equilibrium dissociation constant of an inhibitor or competing ligand from its target. Read a low Ki as a stronger hold on the target.
